Calls of active or inactive are those of the source. No cut-off for these calls is given here.
Tests used:
[1] = tested on: PC-12; experiment: Cytotoxicity in rat PC-12 cells assessed as cell viability measured at 10 to 30 uM for 24 hrs by MTT assay; format: functional, cell-based; conditions: dose 10-30 µM
[2] = tested on: PC-12; experiment: Neuroprotective activity against 6-OHDA-induced cytotoxicity in rat PC-12 cells at 0.1 to 30 uM for 4 hrs followed by exposure to 6-OHDA measured after 24 hrs by MTT assay relative to control; format: functional; conditions: dose 0.1-30 µM, time 28 hrs
[3] = tested on: PC-12; experiment: Neuroprotective activity against 6-OHDA-induced cytotoxicity in rat PC-12 cells for 4 hrs followed by exposure to 6-OHDA measured after 24 hrs by MTT assay; format: functional, cell-based; conditions: dose 0.1-30 µM, time 28.0 hrs
[4] = tested on: PC-12; experiment: Cytotoxicity in rat PC-12 cells assessed as cell viability incubated at 0.1 to 30 uM for 24 hrs by MTT assay relative to control; format: functional; conditions: dose 0.1-30 µM
[5] = tested on: PC-12; experiment: Neuroprotective activity against 6-OHDA-induced cytotoxicity in rat PC-12 cells at 30 uM for 4 hrs followed by exposure to 6-OHDA measured after 24 hrs by MTT assay; format: functional, cell-based; conditions: time 28.0 hrs
[6] = tested on: PC-12; experiment: Cytotoxicity in rat PC-12 cells assessed as cell viability measured at 30 uM for 24 hrs by MTT assay; format: functional, cell-based
[7] = tested on: PC-12; experiment: Neuroprotective activity against 6-OHDA-induced cytotoxicity in rat PC-12 cells at 10 to 30 uM for 4 hrs followed by exposure to 6-OHDA measured after 24 hrs by MTT assay; format: functional, cell-based; conditions: dose 10-30 µM, time 28.0 hrs

## Cc1cc(C)cc(-c2coc3cc(O)c4c(c3c2=O)OC(C)(C)C(O)C4)c1 (stereo unspecified)
[1]
  Activity: Active
[2]
  inhibition (INH): 45.4%
[3]
  Activity: Dose-Dependent Effect
[4]
  Activity: 73%
[5]
  Activity: Active

## CC1(C)Oc2c(c(O)cc3occ(-c4cccc(OC(F)(F)F)c4)c(=O)c23)CC1O (stereo unspecified)
[1]
  Activity: Active

## CC1(C)Oc2c(c(O)cc3occ(-c4ccc(C(F)(F)F)cc4)c(=O)c23)CC1O (stereo unspecified)
[1]
  Activity: Active

## CC1(C)Oc2c(c(O)cc3occ(-c4ccncc4)c(=O)c23)CC1O (stereo unspecified)
[6]
  Activity: Active

## CC1(C)Oc2c(c(O)cc3occ(-c4ccc(F)cc4)c(=O)c23)CC1O (stereo unspecified)
[1]
  Activity: Active

## C#CCN[C@@H]1CCc2ccccc21
[1]
  Activity: Active
[7]
  Activity: Active

## COc1cc(OC)cc(-c2coc3cc(O)c4c(c3c2=O)OC(C)(C)C(O)C4)c1 (stereo unspecified)
[1]
  Activity: inactive
[7]
  Activity: inactive

## CC1(C)Oc2c(c(O)cc3occ(-c4cccs4)c(=O)c23)CC1O (stereo unspecified)
[5]
  Activity: inactive

## COc1ccc(-c2coc3cc(O)c4c(c3c2=O)OC(C)(C)C(O)C4)cc1OC (stereo unspecified)
[1]
  Activity: inactive
[7]
  Activity: inactive

## CC(C)Oc1ccc(-c2coc3cc4c(c(OC(C)C)c3c2=O)C=CC(C)(C)O4)cc1
[6]
  Activity: Active

## Cc1cc(-c2coc3cc(O)c4c(c3c2=O)OC(C)(C)C(O)C4)ccc1F (stereo unspecified)
[1]
  Activity: Active
[7]
  Activity: inactive

## COc1ccc(-c2coc3cc(OC)c4c(c3c2=O)OC(C)(C)C(O)C4)cc1 (stereo unspecified)
[1]
  Activity: inactive
[7]
  Activity: inactive

## CC1(C)Oc2c(c(O)cc3occ(-c4cc(F)cc(F)c4)c(=O)c23)CC1O (stereo unspecified)
[1]
  Activity: Active
[7]
  Activity: inactive

## CC(C)Oc1ccc(-c2coc3cc4c(c(O)c3c2=O)C=CC(C)(C)O4)cc1
[7]
  Activity: inactive

## COc1ccc(-c2coc3cc(O)c4c(c3c2=O)OC(C)(C)CC4)cc1
[1]
  Activity: Active

## CC1(C)Oc2c(c(O)cc3occ(-c4ccc(OC(F)(F)F)cc4)c(=O)c23)CC1O (stereo unspecified)
[1]
  Activity: Active

## CCOc1ccc(-c2coc3cc4c(c(OCC)c3c2=O)C=CC(C)(C)O4)cc1
[6]
  Activity: Active

## COc1ccc(-c2coc3cc(O)c4c(c3c2=O)OC(C)(C)C(O)C4)c(OC)c1 (stereo unspecified)
[1]
  Activity: inactive
[7]
  Activity: inactive

## CC1(C)Oc2c(c(O)cc3occ(-c4cccc(C#N)c4)c(=O)c23)CC1O (stereo unspecified)
[1]
  Activity: Active

## CC1(C)Oc2c(c(O)cc3occ(-c4ccccc4)c(=O)c23)CC1O (stereo unspecified)
[1]
  Activity: inactive
[2]
  inhibition (INH): 49.9%
[3]
  Activity: Dose-Dependent Effect
[4]
  Activity: 75%
[7]
  Activity: Active
[5]
  Activity: Active

Reference: ChEMBL document CHEMBL5352401, “Novel cudraisoflavone J derivatives as potent neuroprotective agents for the treatment of Parkinson's disease via the activation of Nrf2/HO-1 signaling” (Eur J Med Chem, 2022)
